Source: PubChem BioAssay AID792 (PCMD, 2007)
Records with an inconclusive call do not appear. The source made the active and inactive calls. No rule for the calls is given here.

Molecular target: S. cerevisiae eIF2B mutant, luciferase reporter luminescence
Assay: eIF2B reporter inhibitors in yeast strains, dose response, S. cerevisiae, mutant, wild-type, luminescence, growth (AID 792)
[1] = measured here: mutant yeast growth
[2] = S. cerevisiae wild-type, luminescence

| SMILES | IC50 | IC50 [1] | IC50 [2] |
| --- | --- | --- | --- |
| CCCOc1ccc(C(=O)N2CCCc3ccccc32)cc1 | > 100 µM (inactive) | > 100 µM | – |
| Cc1nc(N2CCN(C(=O)c3ccco3)CC2)c2c3c(sc2n1)CCCC3 | > 100 µM (inactive) | > 100 µM | – |
| Cc1nn(-c2ccccc2)c2c1C(c1c(C)[nH]c(C#N)c1C)C(C#N)=C(N)O2 (stereo not given) | > 100 µM (inactive) | > 100 µM | – |
| NC(=O)Cn1c(=O)n(Cc2ccco2)c(=O)c2c3c(sc21)CCCCC3 | > 100 µM (inactive) | > 100 µM | – |
| O=C(Cc1ccccc1)N(c1ccc(F)cc1)C1C=CS(=O)(=O)C1 (stereo not given) | > 100 µM (inactive) | > 100 µM | – |
| Cc1cc(C)nc(Nc2n[nH]c(COc3ccc(Cl)cc3)n2)n1 | > 100 µM (inactive) | > 100 µM | – |
| CC(C)Cc1nnc(NC(=O)CC(=O)Nc2ccccc2C(=O)O)s1 | inactive | > 100 µM | 65.4 µM |
| CCCC1CC(C)(c2csc(Nc3ccc(OCC)cc3)n2)OC1=O (stereo not given) | > 100 µM (inactive) | > 100 µM | – |
| CCC(C)(C(=O)NC1CCCCC1)N(Cc1ccco1)C(=O)c1ccc2c(c1)OCO2 (stereo not given) | > 100 µM (inactive) | > 100 µM | – |
| CSc1ccccc1NC(=O)c1noc2c1CCC2 | > 100 µM (inactive) | > 100 µM | – |
| O=C(Nc1nnc(COc2ccc(Cl)cc2)s1)c1cccs1 | > 100 µM (inactive) | > 100 µM | – |
| c1ccc(SCc2nc(-c3ccccn3)no2)cc1 | > 100 µM (inactive) | > 100 µM | – |
| O=C(NCCC1=CCCCC1)c1ccc(=O)oc1 | > 100 µM (inactive) | > 100 µM | – |
| CC(=O)/C(C(=N)N1CCN(c2cccc(Cl)c2)CC1)=C(\C)O | > 100 µM (inactive) | > 100 µM | – |
| CC(C)C(=O)N1CCN(C2=NS(=O)(=O)c3ccccc32)CC1 | > 100 µM (inactive) | > 100 µM | – |
| COc1ccc(C2=CSC3=NCCN23)cc1F | > 100 µM (inactive) | > 100 µM | – |
| COc1ccc(CC(=O)Nc2ccc(N3CCN(c4ccc(OC)cc4)CC3)c(C#N)c2)cc1 | > 100 µM (inactive) | > 100 µM | – |
| C=CCn1c(SC2CCOC2=O)nc2sc(CC)cc2c1=O (stereo not given) | > 100 µM (inactive) | > 100 µM | – |
| CCC(Sc1nc2n[nH]c(C)c2c(=N)n1-c1ccc(C)c(Cl)c1)C(=O)N1CCOCC1 (stereo not given) | > 100 µM (inactive) | > 100 µM | – |
| Cc1ncc(CC(=O)n2cc(C(=O)c3cc(F)ccc3O)cn2)s1 | > 100 µM (inactive) | > 100 µM | – |
| CCC(Sc1nc2sc(C(=O)OC)c(C)c2c(=O)n1N)C(=O)NCC1CCCO1 (stereo not given) | > 100 µM (inactive) | > 100 µM | – |

| SMILES | IC50 | IC50 [1] | IC50 [2] |
| --- | --- | --- | --- |
| CCOC(=O)C1CCCN(C(=O)C(C)Oc2ccc(Cl)cc2Cl)C1 (stereo not given) | > 100 µM (inactive) | > 100 µM | – |
| C=CCN(C(=O)CCC(=O)O)C1CC(=O)N(c2ccc(OC)cc2)C1=O (stereo not given) | > 100 µM (inactive) | > 100 µM | – |
| CCN(CC)c1ncnc2sc(C(=O)N3CCN(c4ccc(OC)cc4)CC3)c(C)c12 | > 100 µM (inactive) | > 100 µM | – |
| O=C(CCSc1nnc(-c2ccco2)o1)Nc1ccc(Cl)cc1 | > 100 µM (inactive) | > 100 µM | – |
| COc1ccccc1NC(=O)Cc1csc(N)n1 | > 100 µM (inactive) | > 100 µM | – |
| Cc1cc(C)n(-c2cc(=O)n(C)c(=O)n2C)n1 | > 100 µM (inactive) | > 100 µM | – |
| Oc1ccccc1-c1nnc(-c2ccc(C(F)(F)F)cc2)o1 | > 100 µM (inactive) | > 100 µM | – |
| CN(CCO)c1nc(N)c2c(N)nc3c(c2c1C#N)CC(=O)N3C1CCCC1 | > 100 µM (inactive) | > 100 µM | – |
| CC(NC(=O)Nc1ccc(F)cc1F)c1ccncc1 (stereo not given) | > 100 µM (inactive) | > 100 µM | – |
| Cc1ccc(SCc2cc(=O)[nH]c(N3CCN(Cc4ccc5c(c4)OCO5)CC3)n2)cc1 | > 100 µM (inactive) | > 100 µM | – |
| O=C(NC(Cc1ccccc1)C(=O)OCC(=O)N1CCc2ccccc21)c1ccco1 (stereo not given) | > 100 µM (inactive) | > 100 µM | – |
| CCC(C(=O)NC1CCCC1)N(C(=O)c1snc(C(N)=O)c1N)c1ccc2c(c1)OCCO2 (stereo not given) | > 100 µM (inactive) | > 100 µM | – |
| CS(=O)(=O)c1ccc2nc(NC(=O)C3C4C=CC(C4)C3C(=O)O)sc2c1 (stereo not given) | > 100 µM (inactive) | > 100 µM | – |
| Cc1nnc(NC(=O)C2(c3ccccc3)CCOCC2)s1 | > 100 µM (inactive) | > 100 µM | – |
| COCc1cc(=O)[nH]c(Nc2nc3ccc(C)cc3o2)n1 | > 100 µM (inactive) | > 100 µM | – |
| CCCn1c(SCC(=O)Nc2nc3c(s2)CCCC3)nc2c1c(=O)n(C)c(=O)n2C | > 100 µM (inactive) | > 100 µM | – |
| Cc1ccnc2nc(C(=O)Nc3ccc(N4CCOCC4)cc3)nn12 | inactive | > 100 µM | 11.1 µM |
| CCOCC(=O)Nc1cccc(NC(C)=O)c1 | > 100 µM (inactive) | > 100 µM | – |
| Cc1cc(C)cc(OCc2nnc(SCC(=O)N3CCN(c4ccccc4)CC3)o2)c1 | > 100 µM (inactive) | > 100 µM | – |
| CCCOc1ccc(N2C(=O)CC(SC(=NCC)Nc3cccc(F)c3)C2=O)cc1 (stereo not given) | > 100 µM (inactive) | > 100 µM | – |
| COCCn1c(C)cc(C2=NNC(=Nc3ccccc3)SC2)c1C | > 100 µM (inactive) | > 100 µM | – |

Continued, values first:

| IC50 | IC50 [1] | IC50 [2] | SMILES |
| --- | --- | --- | --- |
| > 100 µM (inactive) | 24.2 µM | > 100 µM | CC(C)NC(=O)CCNS(=O)(=O)c1ccc(Br)cc1 |
| > 100 µM (inactive) | > 100 µM | – | Cc1ccccc1OCc1nc2c3cnn(C)c3ncn2n1 |
| inactive | > 100 µM | > 100 µM | CCN(CC)c1ccc(NC(=O)c2cccc(OC)c2)c(C)c1 |
| > 100 µM (inactive) | > 100 µM | – | CCCn1nnc(NC(=O)C(c2ccccc2)c2ccccc2)n1 |
| > 100 µM (inactive) | > 100 µM | – | COc1ccc(OC)c(N(CC(=O)Nc2ccc(NC(C)=O)cc2)S(C)(=O)=O)c1 |
| > 100 µM (inactive) | > 100 µM | – | Cc1ccc(C)c(N2CCN(S(=O)(=O)c3ccc4[nH]c(=O)c(=O)[nH]c4c3)CC2)c1 |
| > 100 µM (inactive) | > 100 µM | – | COc1ccccc1-n1cnnc1SCC(=O)c1cc(C)n(Cc2cccs2)c1C |
| > 100 µM (inactive) | > 100 µM | – | COc1ccccc1CNC(=O)CN(c1ccc(C)cc1)S(=O)(=O)c1c(C)nn(C)c1C |
| > 100 µM (inactive) | > 100 µM | – | CCCCN(Cc1ccccc1)S(=O)(=O)c1ccc2[nH]c(=O)oc2c1 |
| > 100 µM (inactive) | > 100 µM | – | O=C(CCNS(=O)(=O)c1ccc2c(c1)CCC(=O)N2)NCc1cccnc1 |
| > 100 µM (inactive) | > 100 µM | – | Cc1cccn2c(=O)c3cc(C(=O)N4c5ccccc5CC4C)n(C)c3nc12 (stereo not given) |
| > 100 µM (inactive) | > 100 µM | – | COC(=O)c1ccc(NS(=O)(=O)N(C)C)cc1 |
| > 100 µM (inactive) | > 100 µM | – | CCCCCOC(=O)Cn1c(SCC(=O)Nc2ccccc2)nc2c1c(=O)[nH]c(=O)n2C |
| > 100 µM (inactive) | > 100 µM | – | CNC(=O)Cn1nc(-c2ccc(C)c(S(=O)(=O)N(C)C)c2)c2ccccc2c1=O |
| > 100 µM (inactive) | > 100 µM | – | Cn1c(CNc2ccccc2)cc(=O)n(C)c1=O |
| > 100 µM (inactive) | > 100 µM | – | Cn1c(/N=C/c2c(O)ccc3ccccc23)nc2ccccc21 |
| > 100 µM (inactive) | > 100 µM | – | CCOc1ccc(-n2cc(C(=O)N3CCC(C)CC3)c3cc(OC)c(OC)cc3c2=O)cc1 |
| > 100 µM (inactive) | > 100 µM | – | Cc1ccc(-c2nnc3ccc(SCC(=O)NCc4ccco4)nn23)cc1 |

| IC50 | IC50 [1] | IC50 [2] | SMILES |
| --- | --- | --- | --- |
| > 100 µM (inactive) | > 100 µM | – | COc1cccc(-c2nc(N3CCCCC3C)c3ccccc3n2)c1O (stereo not given) |
| > 100 µM (inactive) | > 100 µM | – | O=C(NCc1ccco1)c1sc(=S)n2c1[nH]c(=O)c1ccccc12 |
| > 100 µM (inactive) | > 100 µM | – | CCn1c(Cc2ccccc2)nnc1SCC(=O)Nc1nnc(-c2ccccc2)s1 |
| > 100 µM (inactive) | > 100 µM | – | COc1ccc(OC)c(NC(=O)CNC(=O)Cn2cnc3ccccc3c2=O)c1 |
| > 100 µM (inactive) | > 100 µM | – | COC(=O)c1cn(CCOc2ccccc2)c2ccccc12 |
| > 100 µM (inactive) | > 100 µM | – | CNC(=O)CCn1nc(-c2ccccc2)c2ccccc2c1=O |
| > 100 µM (inactive) | > 100 µM | – | COc1cccc(NC(=O)CN(c2ccc(C)cc2)S(=O)(=O)c2c(C)nn(C)c2C)c1 |
| > 100 µM (inactive) | > 100 µM | – | CCSc1nnc(-c2ccc(S(=O)(=O)NCc3cccs3)cc2)o1 |
| > 100 µM (inactive) | > 100 µM | – | CCn1c(C)c(/C=N/Nc2nc3ccccc3s2)c2ccccc21 |
| > 100 µM (inactive) | > 100 µM | – | O=C(Nc1nc(-c2ccc(S(=O)(=O)N3CCCCCC3)cc2)cs1)c1cccs1 |
| > 100 µM (inactive) | > 100 µM | – | CCC(=O)N1CCc2cc(S(=O)(=O)NC(C(=O)NCc3ccccc3)C(C)C)ccc21 (stereo not given) |
| > 100 µM (inactive) | > 100 µM | – | COc1ccccc1CNC(=O)CN1CCC(NC(=O)c2ccccc2F)CC1 |
| > 100 µM (inactive) | > 100 µM | – | CN(C)CCN1C(=O)C(O)=C(C(=O)c2ccco2)C1c1ccccc1F (stereo not given) |
| > 100 µM (inactive) | > 100 µM | – | COc1ccccc1-n1nc(C(=O)Nc2ccc3c(c2)OCO3)c2ccccc2c1=O |
| > 100 µM (inactive) | > 100 µM | – | CCOc1ccccc1N1CC(C(=O)N2CCc3ccccc32)CC1=O (stereo not given) |
| > 100 µM (inactive) | > 100 µM | – | COC(=O)Cc1c(C)c2cc(Cl)c(OC(=O)c3ccco3)cc2oc1=O |
| > 100 µM (inactive) | > 100 µM | – | Cc1ncc(CO)c2cc(C(N)=O)c(=Nc3ccccc3)oc12 |
| > 100 µM (inactive) | > 100 µM | – | Cc1ccc(S(=O)(=O)n2nc(OC(=O)c3ccco3)cc2N)cc1 |
